The source of these data is ChEMBL document CHEMBL1126639, “Centrally acting serotonergic and dopaminergic agents. 2. Synthesis and structure-activity relationships of 2,3,3a,4,9,9a-hexahydro-1H-benz[f]indole derivatives” (J Med Chem, 1993).

The species named for test [1] is Mus musculus. Nature of the test: Time of effect in the face-to-face behavioral assay in the mouse […]. In kind it is functional.
The subject of test [2] is Mus musculus. Nature of the test: Time of effect in the face-to-face behavioral assay in the mouse when a dose of 2.8 micro mol/kg is administered subcutaneously. In kind it is functional.
Test [3] relates to Mus musculus. Nature of the test: Time of effect in the face-to-face behavioral assay in the mouse when a dose of 28 micro mol/kg is administered subcutaneously. In kind it is functional.
For test [4], the system named is Mus musculus. Briefly: Time of effect in the face-to-face behavioral assay in the mouse when a dose of 8.4 micro mol/kg is administered subcutaneously. In kind it is functional.
Test [5] concerns Mus musculus. Nature of the test: Effective dose on hypothermia in mouse when administered subcutaneously. In kind it is functional. Conditions: Mus musculus, sc; read-out: ED50.
Test [6] relates to Mus musculus. Briefly: Antagonism of apomorphine for 0-10 minutes in reserpinized mice when a dose of 0.4 micro mol/kg is administered intraperitoneally. In kind it is functional.
Test [7] deals with Mus musculus. Nature of the test: Antagonism of apomorphine for 10-20 minutes in reserpinized mice when a dose of 3.7 micro mol/kg is administered intraperitoneally. In kind it is functional.
The species entered for test [8] is Rattus norvegicus. Briefly: Effect on the synthesis rates of serotonin (5-HTP accumulation) in the rat ventral limbic brain region […]. In kind it is functional, Limbic system.
Test [9] deals with Rattus norvegicus. Nature of the test: Inhibition of firing rates of dopaminergic neurons in the substantia nigra pars compacta by intravenous injection in rats. In kind it is functional.
The test system of test [10] is Mus musculus. Briefly: Antagonism of apomorphine for 10-20 minutes in reserpinized mice when a dose of 37 micro mol/kg is administered intraperitoneally. In kind it is functional.
The subject of test [11] is Mus musculus. Briefly: Antagonism of apomorphine in reserpinized mice when a dose of 0.4 micro mol/kg is administered intraperitoneally. In kind it is functional.
Test [12] concerns Mus musculus. Nature of the test: Effective dose on hypothermia in mouse when administered through peroral route. In kind it is functional. Conditions: Mus musculus, po; read-out: ED50.
Test [13] deals with Mus musculus. Briefly: Ability to stimulate dopaminergic systems by effect on locomotor activity in reserpinized mice when a dose of 37 micro mol/kg is administered intraperitoneally. In kind it is functional.
Test [14] deals with Rattus norvegicus. Briefly: Effect on the synthesis rates of dopamine (DOPA accumulation) in the rat ventral limbic brain region at 3.7 uM/kg. In kind it is functional, Limbic system.
Test [15] has as its system Mus musculus. Nature of the test: Antagonism of apomorphine in reserpinized mice when a dose of 37 micro mol/kg is administered intraperitoneally. In kind it is functional.
The target in test [16] is D(2) dopamine receptor (Rattus norvegicus, UniProt P61169). Nature of the test: Binding affinity for [3H]raclopride-labeled dopamine receptor D2 in rat striatum. In kind it is tissue-based.
The subject of test [17] is Mus musculus. Nature of the test: Ability to stimulate dopaminergic systems by effect on locomotor activity in reserpinized mice when a dose of 3.7 micro mol/kg is administered intraperitoneally. In kind it is functional.
The test system of test [18] is Mus musculus. Briefly: Ability to stimulate dopaminergic systems by effect on locomotor activity in reserpinized mice when a dose of 0.4 micro mol/kg is administered intraperitoneally. In kind it is functional.
Test [19] has as its system Mus musculus. Nature of the test: Maximum decrease in temperature when compound is administered subcutaneously. In kind it is functional.
The test system of test [20] is Mus musculus. Briefly: Antagonism of apomorphine for 0-10 minutes in reserpinized mice when a dose of 3.7 micro mol/kg is administered intraperitoneally. In kind it is functional.
Test [21] deals with D(2) dopamine receptor (Homo sapiens, UniProt P14416). Nature of the test: Binding affinity against [3H]U-86,170-labeled dopamine receptor D2 in cloned CHO cells. In kind it is cell-based.
For test [22], the system named is Mus musculus. Briefly: Maximum decrease in temperature when compound is administered through peroral route. In kind it is functional.
In test [23] the test system is Mus musculus. Nature of the test: Antagonism of apomorphine in reserpinized mice when a dose of 3.7 micro mol/kg is administered intraperitoneally. In kind it is functional.
Test [24] concerns Mus musculus. Briefly: Antagonism of apomorphine for 0-10 minutes in reserpinized mice when a dose of 37 micro mol/kg is administered intraperitoneally. In kind it is functional.
Test [25] has as its system Mus musculus. Nature of the test: Antagonism of apomorphine in reserpinized mice when a dose of 35 micro mol/kg is administered intraperitoneally. In kind it is functional.
Test [26] relates to Mus musculus. Briefly: Time of effect in the isolation-induced aggression behavioral assay in the mouse when a dose of 0.0 micro mol/kg is administered intraperitoneally. In kind it is functional.
In test [27] the test system is Mus musculus. Briefly: Time of effect in the isolation-induced aggression behavioral assay in the mouse when a dose of 3.5 micro mol/kg is administered intraperitoneally (*,p<0.05). In kind it is functional.
In test [28] the test system is Mus musculus. Nature of the test: Time of effect in the isolation-induced aggression behavioral assay in the mouse when a dose of 0.4 micro mol/kg is administered intraperitoneally. In kind it is functional.
For test [29], the system named is Mus musculus. Briefly: Ability to stimulate dopaminergic systems by effect on locomotor activity in reserpinized mice when a dose of 3.5 micro mol/kg is administered intraperitoneally (*,p<0.05). In kind it is functional.
Test [30] has as its system Rattus norvegicus. Briefly: Effect on the synthesis rates of dopamine (DOPA accumulation) in the rat ventral limbic brain region at 3.5 umol/kg. In kind it is functional, Limbic system.
Test [31] concerns Rattus norvegicus. Briefly: Inhibition of firing rates of serotonergic neurons in the dorsal raphe nucleus by intravenous injection in rats. In kind it is functional. Conditions: Rattus norvegicus, Dorsal raphe nucleus, iv; read-out: ED50.
The subject of test [32] is Mus musculus. Nature of the test: Time of effect in the isolation-induced aggression behavioral assay in the mouse when a dose of 36 micro mol/kg is administered intraperitoneally (*,p<0.05). In kind it is functional.
Test [33] relates to Rattus norvegicus. Briefly: Effect on the synthesis rates of serotonin (5-HTP accumulation) in the rat ventral limbic brain region 3.5 umol/kg. In kind it is functional, Limbic system.
Test [34] has as its system Mus musculus. Briefly: Antagonism of apomorphine in reserpinized mice when a dose of 3.5 micro mol/kg is administered intraperitoneally. In kind it is functional.
Test [35] concerns Mus musculus. Briefly: Ability to stimulate dopaminergic systems by effect on locomotor activity in reserpinized mice when a dose of 35 micro mol/kg is administered intraperitoneally (*,p<0.05). In kind it is functional.
For test [36], the system named is Rattus norvegicus. Briefly: Inhibition of firing rates of dopaminergic neurons in the substantia nigra pars compacta by intravenous injection in rats. In kind it is functional.
Test [37] relates to Mus musculus. Nature of the test: Time of effect in the isolation-induced aggression behavioral assay in the mouse when a dose of 1.1 micro mol/kg is administered intraperitoneally. In kind it is functional.
Test [38] relates to Mus musculus. Nature of the test: Time of effect in the isolation-induced aggression behavioral assay in the mouse when a dose of 11 micro mol/kg is administered intraperitoneally (*,p<0.05). In kind it is functional.

D(2) dopamine receptor (Rattus norvegicus, UniProt P61169), sequence (P61169 whole entry): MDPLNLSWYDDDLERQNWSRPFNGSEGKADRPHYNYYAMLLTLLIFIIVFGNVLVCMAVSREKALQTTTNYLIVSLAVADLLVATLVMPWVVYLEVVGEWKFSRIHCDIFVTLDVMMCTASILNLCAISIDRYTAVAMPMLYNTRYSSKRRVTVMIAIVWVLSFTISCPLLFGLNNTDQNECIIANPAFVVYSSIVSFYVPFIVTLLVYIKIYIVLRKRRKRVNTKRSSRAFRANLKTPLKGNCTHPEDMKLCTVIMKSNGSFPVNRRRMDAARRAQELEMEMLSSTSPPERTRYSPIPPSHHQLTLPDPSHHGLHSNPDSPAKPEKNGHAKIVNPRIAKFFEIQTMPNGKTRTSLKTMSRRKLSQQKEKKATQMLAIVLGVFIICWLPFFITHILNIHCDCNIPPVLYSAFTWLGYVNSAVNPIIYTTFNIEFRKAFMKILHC
D(2) dopamine receptor (Homo sapiens, UniProt P14416), sequence (P14416 whole entry): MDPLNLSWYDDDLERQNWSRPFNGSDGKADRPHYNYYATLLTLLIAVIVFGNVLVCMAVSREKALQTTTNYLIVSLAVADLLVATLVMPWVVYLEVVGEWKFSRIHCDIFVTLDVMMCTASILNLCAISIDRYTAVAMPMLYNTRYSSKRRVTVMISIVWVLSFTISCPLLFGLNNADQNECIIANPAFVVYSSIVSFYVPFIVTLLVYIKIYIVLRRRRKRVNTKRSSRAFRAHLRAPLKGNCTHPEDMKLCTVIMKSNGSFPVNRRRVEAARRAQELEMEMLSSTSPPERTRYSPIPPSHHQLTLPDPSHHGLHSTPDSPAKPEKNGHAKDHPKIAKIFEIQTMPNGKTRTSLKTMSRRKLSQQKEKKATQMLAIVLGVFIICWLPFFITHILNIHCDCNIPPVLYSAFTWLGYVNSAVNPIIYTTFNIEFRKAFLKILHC

Regarding `CN(C)CCCN1c2ccccc2Sc2ccc(Cl)cc21.Cl` [CHLORPROMAZINE HYDROCHLORIDE], the Time in test [1] was 3.6 s; in test [2] it was 5.8 s; in [3], 0 s; in [4] it was 1.3 s.
As for `CCCN1CC[C@@H]2Cc3c(O)cccc3C[C@H]21`, the ED50 was 0.03 µmol/kg in test [5], 0.0014 µmol/kg in test [9] and 0.04 µmol/kg in test [12]. Moreover, the Locomotor activity in [6] came to 48; in test [7], 62; in [10], 53; in test [11], 56; in test [13], 1625; in [15] it was 43. Also, the Locomotor activity in [17] amounted to 1014; in test [18], 739; in test [20] it was 52; in test [23], 47; in test [24], 93. Further, the Control in test [8] is given as -9.5%; in [14], -45%. Further, the Ki in test [16] is 2 nM; in [21], 0.5 nM. The Max temperature decrease came to 7.5 in test [19] and 10.9 in [22].
For the compound `CCCN1CC[C@@H]2Cc3c(cccc3OC)C[C@H]21` (racemic), the Locomotor activity in [25] came to 61; in [29] it was 1168; in test [11], 148; in test [34] it was 129; in test [35], 561; in test [18], 251. Further, the ED50 in test [5] is 0.4 µmol/kg; in test [31] it was 0.07 µmol/kg; in test [12], above 355 µmol/kg; in test [36] it was 0.66 µmol/kg. The Time in test [26] amounted to 9 s; in test [27], 384 s; in test [28] it was 6 s; in test [32] it was 450 s; in test [37], 134 s; in [38] it was 268 s. Besides, the Control was -39% in [30] and -29% in test [33]. Further, the Ki amounted to 877 nM in [16] and 100 nM in [21]. The figures for the Max temperature decrease in [19] and in test [22] were 6.7 and 1.4, respectively.

One may read the ED50 as the dose at which the effect has come halfway, by size or by number of responders. In general, Ki refers to the equilibrium dissociation constant of an inhibitor or competing ligand from its target. Read a low Ki as tighter binding.
